The numbers were not newly measured in US20210353710A1, “GLP-1R AGONIST AND METHODS OF TREATMENT” (The Johns Hopkins University, priority 2020, published 2021), which cites them from elsewhere.

The conditions of the data set: given twice a day for one month.

As for Exendin-4, the “effect on blood glucose in humans” value is listed as “hypoglycemic effect”.
